# Test results as given in paper PMC7115530 (European Journal of Medicinal Chemistry, 2012).
# Target: SARS-CoV 3CL^pro (Severe acute respiratory syndrome coronavirus, UniProt P0C6X7)
# Format: biochemical
compound,measurement,value
CC(C)C[C@H](NC(=O)[C@@H](NC(=O)[C@H](C)NC(=O)OCc1ccccc1)C(C)C)C(=O)N[C@H](C#N)CCC(N)=O [Cbz-AVLQ-CN],increase in potency over the other inhibitors tested,~10 fold
